Measurements from ChEMBL document CHEMBL4020831, “Discovery of GDC-0853: A Potent, Selective, and Noncovalent Bruton's Tyrosine Kinase Inhibitor in Early Clinical Development” (J Med Chem, 2018).
pIC50: −log10 of the molar value. Activity calls are given as the source filed them. The rule behind the calls is not given here.

Legend:
ERBB2 = ERBB2 (Homo sapiens, UniProt P04626); assay: Inhibition of recombinant human cytoplasmic His-tagged ERBB2 expressed in baculovirus at 1 uM by Z'-LYTE assay
[1] = Oral bioavailability in rat at 1 mg/kg administered as single dose via cassette dosing; format: ADME, organism-based; conditions: in vivo
Hepatocyte = assay: Cytotoxicity against human primary hepatocytes assessed as reduction in cell viability; format: cell-based
[2] = Volume of distribution in rat at 0.2 mg/kg, iv or 1 mg/kg, po administered as single dose via cassette dosing; format: ADME, organism-based; conditions: in vivo
[3] = Half life in rat at 0.2 mg/kg, iv or 1 mg/kg, po administered as single dose via cassette dosing; format: ADME, organism-based; conditions: in vivo
Nav1.5 = Nav1.5 (Homo sapiens, UniProt Q14524); assay: Inhibition of human Nav1.5 expressed in CHO cells at 1 uM incubated for 3 to 5 mins by Qpatch clamp assay; format: cell-based; conditions: CHO cells expressing human Nav1.5
Sequence of Nav1.5 (Q14524 whole entry): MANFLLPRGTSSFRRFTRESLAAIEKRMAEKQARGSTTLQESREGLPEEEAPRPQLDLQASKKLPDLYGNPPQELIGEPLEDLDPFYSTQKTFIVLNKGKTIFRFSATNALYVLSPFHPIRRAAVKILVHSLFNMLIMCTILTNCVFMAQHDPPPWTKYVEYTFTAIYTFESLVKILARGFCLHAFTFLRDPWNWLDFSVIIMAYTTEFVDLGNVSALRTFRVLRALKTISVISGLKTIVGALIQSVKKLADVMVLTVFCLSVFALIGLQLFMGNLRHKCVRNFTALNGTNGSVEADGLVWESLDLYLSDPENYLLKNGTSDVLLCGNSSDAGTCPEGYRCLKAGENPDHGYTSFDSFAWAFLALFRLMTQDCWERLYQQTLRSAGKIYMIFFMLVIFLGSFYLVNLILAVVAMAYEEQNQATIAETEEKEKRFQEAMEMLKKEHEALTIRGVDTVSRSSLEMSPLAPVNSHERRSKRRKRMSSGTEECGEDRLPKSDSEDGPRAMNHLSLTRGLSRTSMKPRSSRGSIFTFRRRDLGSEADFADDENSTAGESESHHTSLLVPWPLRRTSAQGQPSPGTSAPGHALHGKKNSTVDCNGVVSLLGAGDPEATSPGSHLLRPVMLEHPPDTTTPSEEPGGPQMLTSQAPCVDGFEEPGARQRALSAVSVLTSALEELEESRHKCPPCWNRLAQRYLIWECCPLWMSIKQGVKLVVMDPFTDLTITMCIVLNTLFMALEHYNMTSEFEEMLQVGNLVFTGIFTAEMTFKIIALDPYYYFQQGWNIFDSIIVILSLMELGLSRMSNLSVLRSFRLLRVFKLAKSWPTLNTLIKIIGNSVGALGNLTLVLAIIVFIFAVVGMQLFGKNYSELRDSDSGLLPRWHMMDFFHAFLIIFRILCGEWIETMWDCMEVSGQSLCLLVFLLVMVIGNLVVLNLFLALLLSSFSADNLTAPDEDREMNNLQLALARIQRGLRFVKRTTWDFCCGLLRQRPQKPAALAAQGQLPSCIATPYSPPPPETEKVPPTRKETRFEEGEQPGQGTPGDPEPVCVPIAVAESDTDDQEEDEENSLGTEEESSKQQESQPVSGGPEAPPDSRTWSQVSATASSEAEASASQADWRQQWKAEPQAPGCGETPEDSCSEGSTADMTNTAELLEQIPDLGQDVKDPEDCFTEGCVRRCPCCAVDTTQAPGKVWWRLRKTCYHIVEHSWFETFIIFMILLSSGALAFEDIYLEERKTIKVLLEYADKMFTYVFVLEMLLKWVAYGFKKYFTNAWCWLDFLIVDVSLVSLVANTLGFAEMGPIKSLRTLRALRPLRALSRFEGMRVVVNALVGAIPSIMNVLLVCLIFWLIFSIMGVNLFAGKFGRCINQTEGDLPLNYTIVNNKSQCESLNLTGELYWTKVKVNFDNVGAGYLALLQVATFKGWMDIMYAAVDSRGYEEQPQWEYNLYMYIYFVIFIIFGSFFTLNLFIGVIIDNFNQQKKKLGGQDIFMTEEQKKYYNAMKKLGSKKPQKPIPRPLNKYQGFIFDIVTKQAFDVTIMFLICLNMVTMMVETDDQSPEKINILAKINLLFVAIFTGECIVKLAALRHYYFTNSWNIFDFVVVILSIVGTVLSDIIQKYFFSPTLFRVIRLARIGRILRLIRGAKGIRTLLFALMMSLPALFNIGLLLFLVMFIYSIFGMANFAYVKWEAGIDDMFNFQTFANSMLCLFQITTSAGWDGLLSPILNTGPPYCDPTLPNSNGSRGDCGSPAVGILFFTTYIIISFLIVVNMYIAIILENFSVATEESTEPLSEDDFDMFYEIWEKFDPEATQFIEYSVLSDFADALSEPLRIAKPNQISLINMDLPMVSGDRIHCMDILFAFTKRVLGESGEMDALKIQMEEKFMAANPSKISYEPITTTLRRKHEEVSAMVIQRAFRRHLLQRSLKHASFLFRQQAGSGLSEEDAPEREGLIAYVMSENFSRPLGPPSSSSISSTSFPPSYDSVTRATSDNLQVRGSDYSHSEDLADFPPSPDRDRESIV

Escherichia coli = assay: Genotoxicity in Escherichia coli WP2 harboring uvrA deletion mutant after 48 to 72 hrs in absence of liver S9 fraction by Ames test; format: toxicity
Cytochrome P450 3A4 = Cytochrome P450 3A4 (Homo sapiens, UniProt P08684); assay: Inhibition of CYP3A4 (unknown origin); format: ADME
Cytochrome P450 1A2 = Cytochrome P450 1A2 (Homo sapiens, UniProt P05177); assay: Inhibition of CYP1A2 (unknown origin); format: ADME
Sequence of Cytochrome P450 1A2 (P05177 whole entry): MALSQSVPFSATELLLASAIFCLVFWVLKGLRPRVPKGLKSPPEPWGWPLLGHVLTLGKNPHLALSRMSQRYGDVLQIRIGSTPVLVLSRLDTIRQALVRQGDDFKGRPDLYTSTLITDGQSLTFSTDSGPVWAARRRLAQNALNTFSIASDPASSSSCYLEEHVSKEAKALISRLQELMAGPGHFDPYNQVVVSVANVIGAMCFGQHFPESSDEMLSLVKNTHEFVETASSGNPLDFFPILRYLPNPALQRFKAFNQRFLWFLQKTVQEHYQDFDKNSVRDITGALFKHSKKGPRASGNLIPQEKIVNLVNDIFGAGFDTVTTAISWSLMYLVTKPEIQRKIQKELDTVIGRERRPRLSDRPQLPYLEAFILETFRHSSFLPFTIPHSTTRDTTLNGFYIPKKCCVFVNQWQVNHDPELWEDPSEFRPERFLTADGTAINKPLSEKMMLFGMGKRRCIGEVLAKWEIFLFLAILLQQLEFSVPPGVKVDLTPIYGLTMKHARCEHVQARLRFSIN

Cytochrome P450 2C19 = Cytochrome P450 2C19 (Homo sapiens, UniProt P33261); assay: Inhibition of CYP2C19 (unknown origin); format: ADME
Cytochrome P450 2D6 = Cytochrome P450 2D6 (Homo sapiens, UniProt P10635); assay: Inhibition of CYP2D6 (unknown origin); format: ADME
Sequence of Cytochrome P450 2D6 (P10635 whole entry): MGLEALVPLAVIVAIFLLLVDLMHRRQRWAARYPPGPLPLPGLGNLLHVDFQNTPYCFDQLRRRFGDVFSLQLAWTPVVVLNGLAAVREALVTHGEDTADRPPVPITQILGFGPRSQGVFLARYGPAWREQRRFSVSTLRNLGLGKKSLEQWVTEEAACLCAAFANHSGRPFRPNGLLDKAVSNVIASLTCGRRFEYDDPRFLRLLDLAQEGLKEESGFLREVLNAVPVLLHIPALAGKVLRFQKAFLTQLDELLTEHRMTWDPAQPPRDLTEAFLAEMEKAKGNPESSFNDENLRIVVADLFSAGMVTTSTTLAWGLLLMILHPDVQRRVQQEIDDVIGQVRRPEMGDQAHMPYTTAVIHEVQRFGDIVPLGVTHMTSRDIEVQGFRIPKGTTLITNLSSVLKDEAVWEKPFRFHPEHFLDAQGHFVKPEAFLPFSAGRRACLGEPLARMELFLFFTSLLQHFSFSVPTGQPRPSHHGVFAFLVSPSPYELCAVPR

TXK = target: T1, TXK (Homo sapiens, UniProt P42681); assay: Inhibition of human full length GST-tagged TXK expressed in baculovirus at 1 uM by Z'-LYTE assay
T1 sequence (P42681 whole entry): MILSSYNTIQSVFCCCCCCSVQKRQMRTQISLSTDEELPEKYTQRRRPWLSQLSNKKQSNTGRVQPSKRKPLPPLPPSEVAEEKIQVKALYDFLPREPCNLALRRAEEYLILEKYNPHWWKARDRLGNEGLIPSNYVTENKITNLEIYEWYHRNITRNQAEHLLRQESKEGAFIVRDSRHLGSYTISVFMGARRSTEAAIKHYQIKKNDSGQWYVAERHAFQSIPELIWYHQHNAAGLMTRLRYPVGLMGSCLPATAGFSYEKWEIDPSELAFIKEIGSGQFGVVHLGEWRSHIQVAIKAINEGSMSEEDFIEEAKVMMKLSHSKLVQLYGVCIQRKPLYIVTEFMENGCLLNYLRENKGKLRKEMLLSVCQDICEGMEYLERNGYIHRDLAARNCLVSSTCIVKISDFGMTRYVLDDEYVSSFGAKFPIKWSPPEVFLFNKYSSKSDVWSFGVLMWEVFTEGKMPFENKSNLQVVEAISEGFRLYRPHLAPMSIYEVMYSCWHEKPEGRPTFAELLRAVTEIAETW

JAK3 = target: T2, JAK3 (Homo sapiens, UniProt P52333); assay: Inhibition of recombinant human catalytic GST-tagged JAK3 expressed in baculovirus at 1 uM by Z'-LYTE assay
T2 sequence (P52333 whole entry): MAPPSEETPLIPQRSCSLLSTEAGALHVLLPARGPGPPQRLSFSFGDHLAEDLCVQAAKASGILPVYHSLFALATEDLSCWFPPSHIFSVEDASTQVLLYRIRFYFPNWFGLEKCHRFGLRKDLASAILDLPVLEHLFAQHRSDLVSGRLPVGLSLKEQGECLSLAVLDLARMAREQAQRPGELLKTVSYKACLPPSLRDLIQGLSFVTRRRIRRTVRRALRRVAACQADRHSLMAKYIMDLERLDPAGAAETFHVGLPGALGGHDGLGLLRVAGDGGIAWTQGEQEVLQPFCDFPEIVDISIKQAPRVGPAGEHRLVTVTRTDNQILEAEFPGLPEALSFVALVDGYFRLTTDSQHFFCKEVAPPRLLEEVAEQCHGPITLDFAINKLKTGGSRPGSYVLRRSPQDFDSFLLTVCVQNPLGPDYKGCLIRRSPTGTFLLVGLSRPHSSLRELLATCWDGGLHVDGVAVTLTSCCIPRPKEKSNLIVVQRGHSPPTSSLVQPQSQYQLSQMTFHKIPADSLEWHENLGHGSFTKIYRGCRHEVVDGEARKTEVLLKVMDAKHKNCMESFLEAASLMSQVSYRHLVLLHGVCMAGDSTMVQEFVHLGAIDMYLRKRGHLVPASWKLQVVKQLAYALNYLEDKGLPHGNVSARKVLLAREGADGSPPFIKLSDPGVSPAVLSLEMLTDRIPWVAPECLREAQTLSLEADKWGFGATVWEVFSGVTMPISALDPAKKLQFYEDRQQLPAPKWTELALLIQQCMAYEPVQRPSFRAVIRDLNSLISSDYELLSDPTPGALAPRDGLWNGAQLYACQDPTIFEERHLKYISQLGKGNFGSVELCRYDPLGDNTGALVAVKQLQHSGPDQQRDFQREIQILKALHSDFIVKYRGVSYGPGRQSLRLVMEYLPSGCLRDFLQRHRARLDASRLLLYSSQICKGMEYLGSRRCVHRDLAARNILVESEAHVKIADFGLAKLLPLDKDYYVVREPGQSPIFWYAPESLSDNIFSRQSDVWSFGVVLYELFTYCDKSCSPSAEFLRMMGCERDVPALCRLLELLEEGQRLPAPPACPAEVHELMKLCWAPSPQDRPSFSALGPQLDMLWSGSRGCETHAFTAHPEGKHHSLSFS

EGFR = EGFR (Homo sapiens, UniProt P00533); assay: Inhibition of recombinant human cytoplasmic GST-tagged EGFR expressed in baculovirus at 1 uM by Z'-LYTE assay
Sequence of EGFR (P00533 whole entry): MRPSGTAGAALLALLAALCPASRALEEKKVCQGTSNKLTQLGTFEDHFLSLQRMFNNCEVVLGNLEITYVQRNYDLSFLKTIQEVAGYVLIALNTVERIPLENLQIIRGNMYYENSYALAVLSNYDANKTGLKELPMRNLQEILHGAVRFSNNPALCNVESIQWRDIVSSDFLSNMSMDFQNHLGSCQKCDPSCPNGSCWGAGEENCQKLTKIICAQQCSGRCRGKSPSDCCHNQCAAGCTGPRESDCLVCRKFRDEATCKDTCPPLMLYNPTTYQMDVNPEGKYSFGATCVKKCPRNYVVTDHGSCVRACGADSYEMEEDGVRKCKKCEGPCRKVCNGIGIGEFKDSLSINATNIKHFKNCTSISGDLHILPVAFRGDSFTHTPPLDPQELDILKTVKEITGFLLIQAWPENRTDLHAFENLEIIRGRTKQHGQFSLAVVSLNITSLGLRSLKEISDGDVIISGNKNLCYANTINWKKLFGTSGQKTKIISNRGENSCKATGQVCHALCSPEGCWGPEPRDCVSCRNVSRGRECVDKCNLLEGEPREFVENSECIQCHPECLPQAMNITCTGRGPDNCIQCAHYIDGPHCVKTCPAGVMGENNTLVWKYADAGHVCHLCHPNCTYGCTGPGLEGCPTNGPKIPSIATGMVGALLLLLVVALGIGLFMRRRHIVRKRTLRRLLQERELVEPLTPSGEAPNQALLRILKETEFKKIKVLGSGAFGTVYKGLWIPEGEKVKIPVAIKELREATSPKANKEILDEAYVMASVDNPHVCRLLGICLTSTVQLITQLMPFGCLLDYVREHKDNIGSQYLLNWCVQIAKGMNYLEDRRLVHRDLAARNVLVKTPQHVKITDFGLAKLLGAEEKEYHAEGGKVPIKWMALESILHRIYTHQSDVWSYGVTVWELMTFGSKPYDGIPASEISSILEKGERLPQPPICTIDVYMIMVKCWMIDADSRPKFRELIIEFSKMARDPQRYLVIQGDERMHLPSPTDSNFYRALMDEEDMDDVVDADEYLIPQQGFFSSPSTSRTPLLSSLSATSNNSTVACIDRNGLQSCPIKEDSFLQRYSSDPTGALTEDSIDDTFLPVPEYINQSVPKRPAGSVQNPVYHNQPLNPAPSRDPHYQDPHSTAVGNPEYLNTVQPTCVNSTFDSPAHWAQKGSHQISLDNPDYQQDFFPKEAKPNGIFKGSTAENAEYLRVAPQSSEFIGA

LTK = LTK (Homo sapiens, UniProt P29376); assay: Inhibition of recombinant human cytoplasmic GST-tagged LTK expressed in baculovirus at 1 uM by Z'-LYTE assay
Sequence of LTK (P29376 whole entry): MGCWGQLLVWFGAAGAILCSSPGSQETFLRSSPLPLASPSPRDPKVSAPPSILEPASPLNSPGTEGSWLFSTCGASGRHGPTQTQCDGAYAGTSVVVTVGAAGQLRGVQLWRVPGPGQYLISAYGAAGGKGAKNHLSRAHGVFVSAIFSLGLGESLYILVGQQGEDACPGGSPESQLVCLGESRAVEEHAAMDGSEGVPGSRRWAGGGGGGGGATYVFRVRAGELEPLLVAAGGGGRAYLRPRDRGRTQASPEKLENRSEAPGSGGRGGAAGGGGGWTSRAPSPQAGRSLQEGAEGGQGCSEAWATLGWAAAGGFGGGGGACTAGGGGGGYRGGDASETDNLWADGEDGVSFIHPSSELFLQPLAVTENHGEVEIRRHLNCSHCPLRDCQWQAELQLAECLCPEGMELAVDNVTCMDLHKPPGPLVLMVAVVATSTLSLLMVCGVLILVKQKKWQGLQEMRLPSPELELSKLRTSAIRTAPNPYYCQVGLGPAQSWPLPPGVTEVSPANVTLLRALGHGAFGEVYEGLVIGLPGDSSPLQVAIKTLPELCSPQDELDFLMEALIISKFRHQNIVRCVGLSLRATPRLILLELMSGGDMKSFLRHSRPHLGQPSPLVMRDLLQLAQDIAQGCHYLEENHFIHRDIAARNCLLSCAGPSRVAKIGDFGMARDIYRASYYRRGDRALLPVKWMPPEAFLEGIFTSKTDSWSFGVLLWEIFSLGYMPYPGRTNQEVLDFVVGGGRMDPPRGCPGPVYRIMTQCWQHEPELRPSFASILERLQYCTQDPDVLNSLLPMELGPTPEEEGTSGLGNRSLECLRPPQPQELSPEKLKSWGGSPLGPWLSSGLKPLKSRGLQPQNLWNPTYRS

Rattus norvegicus [4] = assay: Time at which plasma concentration stays above in vitro IC90 for BTK autophosphorylation at Y223 in rat whole blood in Lewis rat collagen-induced arthritis model at 1 to 16 mg/kg, po qd measured during 24 hrs dosing
Rattus norvegicus [5] = assay: Time at which plasma concentration stays above in vitro IC50 for BTK autophosphorylation at Y223 in rat whole blood in Lewis rat collagen-induced arthritis modelt at 0.125 to 2 mg/kg, po bid measured during 12 hrs dosing
Rattus norvegicus [6] = assay: Time at which plasma concentration stays above in vitro IC70 for BTK autophosphorylation at Y223 in rat whole blood in Lewis rat collagen-induced arthritis model at 0.125 to 2 mg/kg, po bid measured during 12 hrs dosing
Rattus norvegicus [7] = assay: Antiinflammatory activity in Lewis rat collagen-induced arthritis model assessed as reduction in ankle cartilage damage at 0.06 to 16 mg/kg, po administered qd for 16 days; format: functional, organism-based
Rattus norvegicus [8] = assay: Antiinflammatory activity in Lewis rat collagen-induced arthritis model assessed as reduction in bone resorption at 0.06 to 16 mg/kg, po administered qd for 16 days; format: functional, organism-based

Molecule `C[C@H]1CN(C2COC2)CCN1c1ccc(Nc2cc(-c3ccnc(N4CCn5c(cc6c5CC(C)(C)C6)C4=O)c3CO)cn(C)c2=O)nc1` [FENEBRUTINIB] has an inhibition at 1 µM (ERBB2) of -1%, a bioavailability [1] of 65.1% and a pIC50 (Hepatocyte) of less than 3.52. For the same molecule, the Vd [2] was 5.42 L/kg, the half-life [3] was 2.2 h and the inhibition at 1 µM (Nav1.5) was 0.6%. The Activity (Escherichia coli) was “Non-Toxic”, the pIC50 (Cytochrome P450 3A4) was less than 5.30 and the pIC50 (Cytochrome P450 1A2) was less than 5.30. The pIC50 (Cytochrome P450 2C19) was less than 5.30, the pIC50 (Cytochrome P450 2D6) was less than 5.30 and the inhibition at 1 µM (TXK) was 4%. For the same molecule, the inhibition at 1 µM (JAK3) was 5%, the inhibition at 1 µM (EGFR) was -7% and the inhibition at 1 µM (LTK) was -1%. It also gave a Time (Rattus norvegicus [4]) of 12 h, a Time (Rattus norvegicus [5]) of 6 h and a Time (Rattus norvegicus [6]) of 6 h. The Activity (Rattus norvegicus [7]) was “Active” and the Activity (Rattus norvegicus [8]) was “Active”.
